The term LC50 denotes the concentration that kills 50% of the test population.

The record followed here is US11612165B2, “Pesticide composition for controlling Spodoptera frugiperda” (priority 2020, dated 2023).

The test system of this experiment is Spodoptera frugiperda. Kind of experiment: Indoor toxicity test, immersion method, larvae mortality after 24 h. The class given is in vivo. The settings on record: single or mixed in different ratios, 3-day-old larvae, 25° C., read-out: LC50 (95% confidence limit). The text has this:
Pesticide for test: TC of tea saponin; TC of chlorantraniliprole; TC of tolfenpyrad;
Pest for test: Spodoptera frugiperda (2-3-day-old);
Test method: immersion method: calculating the dosage of the TC according to the active ingredients, preparing the TC into a mother solution, adding clear water to dilute the mother solution to 5-7 gradient concentrations, taking clear water treatment as a control, and setting 3 repetitions for each treatment; selecting 20 larvae with basically the same growth state, putting the larvae into an experiment barrel containing pesticide liquid, covering a gauze (to prevent escape), placing in a 25° C. incubator, investing the death situations after 24 h, recording the number of the dead larvae, and processing data by DPS statistical software.

Like-named read-outs stand apart in the source and are kept apart here.

On to `CCc1nn(C)c(C(=O)NCc2ccc(Oc3ccc(C)cc3)cc2)c1Cl` [Tolfenpyrad (A), Tolfenpyrad], for which the median lethal concentration (LC50) (tolfenpyrad (A) and tea saponin (B)) was 0.563 mg/L. In the case of `CNC(=O)c1cc(Cl)cc(C)c1NC(=O)c1cc(Br)nn1-c1ncccc1Cl` [Chlorantraniliprole (A), Chlorantraniliprole], the LC50 (chlorantraniliprole (A) and tea saponin (B)) is 0.283 mg/L.
